Assay [1] concerns T47D (breast). The assay is described as follows: Anti-cell proliferation in tumor cells (14C-thymidine incorporation), T47D. Format: cell-based. Conditions: Homo sapiens, read-out: IC50 on cell proliferation, T47D. As to the method:
(§1) The effect of compounds of the invention on cell proliferation in various tumor cells was tested based on incorporation of ^14C-thymidine into DNA of cells.
(§2) Similar to those described above in 3a, except that different cells, cell growth medium, and growth supplements were used. Human tumor cell lines derived from various human tissue origins (LoVo from colon, H460 from lung, T47D from breast, PC3 from prostate, A375 from melanoma, AsPC1 from pancreas) were obtained from the American Type Culture Collection (ATCC) and cultured under specified conditions required for each cell type, as provided by ATCC. Complete medium was obtained from Cellgro: Iscove's medium with 10% Fetal Bovine Serium (FBS) (Mediatech, Inc., Herndon, Va. 20171, Cat. No. 10-016-CV).
(§3) Tumor cells were seeded at approx. 3000–8000 cells per well in a volume of 100 μl of complete medium. Cells were grown for 24 hours in complete medium, and 1 μl of test compound was serially diluted in 100% DMSO and added to each well. For maximum growth control wells, only 1 μl of 100% DMSO was added. After 24 hours incubation, 20 μl of ^14C-thymidine master mix was added to each well and the ^14C-thymidine master mix was pepared according to the following regimen:
(§4) Cells were incubated for an additional 24 hours at 37° C. in medium containing test compound and ^14C-thymidine. Then, the reaction mixture was discarded and the plate was washed 2 times each with 200 μl PBS. Subsequently, each well on the plate was filled with 200 μl of PBS. The top of the plate was sealed with transparent plate sealer and white plate backing sealers were applied to the bottom of plates. The retained ^14C inside each well was measured using a Packard TopCount.
(§5) In order to test the potency of inhibition of the present compound, IC50 of an individual compound on the inhibition of tumor cell line proliferation was measured using the above procedure. As used herein, said IC50 refers to the concentration of the test compound at which the amount of tumor cell proliferation is reduced by one-half as compared to the maximum growth control wells without the compound.
(Dividing cells build labelled thymidine or BrdU into new DNA.)

Assay [2] deals with PC3 (prostate). The assay is described as follows: Anti-cell proliferation in tumor cells (14C-thymidine incorporation), PC3. The assay is classed as cell-based. As to the method:
as §1, §2, §3, §4, §5

In assay [3] the test system is AsPC1 (pancreas). The assay is described as follows: Anti-cell proliferation in tumor cells (14C-thymidine incorporation), AsPC1. Format: cell-based. As to the method:
as §1, §2, §3, §4, §5

Assay [4] concerns the target T1, PDGF-receptor beta enzyme comprising the tyrosine kinase domain (Homo sapiens, UniProt P09619).
T1 construct: from amino acid 545 to 1106 of GenBank Access NO: AAA36427
The assay is described as follows: Inhibition of PDGF-receptor kinase activity (cell-free, PLC1 peptide, 33P Flashplate). Format: biochemical. Particulars: PDGF-R kinase activity; for inhibition at 10 µM: compound at 10 uM, read-out: Percent Inhibition @ 10 uM; for pIC50: read-out: IC50. The gist of the method:
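The IC50 is the inhibitor level halving kinase activity relative to inhibitor-free wells, measured as 33P captured on a streptavidin-bound biotin-PLC1 peptide. The reaction ran 60 min at 30 °C in pH 8 Tris buffer with 1 mM DTT, 5 μM ATP and the 545–1106 kinase-domain enzyme.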

In assay [5] the test system is A375 (melanoma). The assay can be described thus: Anti-cell proliferation in tumor cells (14C-thymidine incorporation), A375. The assay is classed as cell-based. As to the method: as §1, §2, §3, §4, §5
The mark [6] stands for this setting: Homo sapiens, PC-3; read-out: IC50 on cell proliferation, PC3.
Where [7] appears, read: Homo sapiens, ASPC1; read-out: IC50 on cell proliferation, AsPC1.
[8] abbreviates: Homo sapiens, A-375; read-out: IC50 on cell proliferation, A375.

pIC50: −log10 of the molar value. Where two headings read alike, the source gives them in different places.

T1 sequence (P09619 545-1106): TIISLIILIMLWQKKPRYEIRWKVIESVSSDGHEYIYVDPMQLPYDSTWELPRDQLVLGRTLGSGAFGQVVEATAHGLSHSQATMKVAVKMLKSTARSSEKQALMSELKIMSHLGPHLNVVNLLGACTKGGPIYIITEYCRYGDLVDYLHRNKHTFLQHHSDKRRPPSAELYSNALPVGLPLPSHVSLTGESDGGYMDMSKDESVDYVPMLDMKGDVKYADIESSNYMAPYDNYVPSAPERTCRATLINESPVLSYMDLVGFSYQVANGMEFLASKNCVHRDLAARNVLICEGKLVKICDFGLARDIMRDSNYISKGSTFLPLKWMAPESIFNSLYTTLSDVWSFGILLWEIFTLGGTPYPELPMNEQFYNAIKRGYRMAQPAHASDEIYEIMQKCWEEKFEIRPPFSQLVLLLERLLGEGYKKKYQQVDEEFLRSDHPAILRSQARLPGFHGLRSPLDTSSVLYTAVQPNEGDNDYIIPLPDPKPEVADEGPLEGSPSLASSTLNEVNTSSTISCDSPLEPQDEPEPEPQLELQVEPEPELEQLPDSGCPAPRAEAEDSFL

As to `COc1cc2c(cc1OC)-c1n[nH]c(Nc3ccccc3F)c1C2` [Compound 12, (6,7-Dimethoxy-2,4-dihydro-indeno[1,2-c]pyrazol-3-yl)-(2-fluoro-phenyl)-amine], the pIC50 in assay [1] was 7.51; in assay [2] (setting [6]), 7.89; in assay [3] (setting [7]), 7.11; in assay [4], 7.25; in assay [5] (setting [8]) it was 7.96. Moreover, in assay [4], the inhibition (as a rule, the relative decrease from the control value, in per cent) at 10 µM is 76%.

Take `COC(=O)c1cccc(Nc2[nH]nc3c2Cc2cc(OCCCN4CCCC4)c(OC)cc2-3)c1` [Compound 157, 3-[7-Methoxy-6-(3-pyrrolidin-1-yl-propoxy)-2,4-dihydro-indeno[1,2-c]pyrazol-3-ylamino]-benzoic acid methyl ester]: the pIC50 in assay [1] was 5.72; in assay [2] (setting [6]), 5.50; in assay [3] (setting [7]) it was < 5.00; in assay [4], 8.15; in assay [5] (setting [8]) it was 5.91. Further, in assay [4], the inhibition at 10 µM amounted to 85%.

`COC(=O)c1cccc(Nc2[nH]nc3c2Cc2cc(OC)c(OC)cc2-3)c1` [Compound 11, 3-(6,7-Dimethoxy-2,4-dihydro-indeno[1,2-c]pyrazol-3-ylamino)-benzoic acid methyl ester]: the pIC50 in assay [1] is 8.15; in assay [2] (setting [6]) it was 7.85; in assay [3] (setting [7]), 7.52; in assay [4], 7.80; in assay [5] (setting [8]), 8.30. For the same compound, the inhibition at 10 µM in assay [4] worked out at 97%.

In the case of `COc1cc2c(cc1OC)-c1n[nH]c(NCc3cc(Cl)ccc3Cl)c1C2` [Compound 330, (2,5-Dichloro-benzyl)-(6,7-dimethoxy-2,4-dihydro-indeno[1,2-c]pyrazol-3-yl)-amine], the pIC50 in assay [1] is 6.45; in assay [2] (setting [6]) it was 6.52; in assay [3] (setting [7]), 5.81; in assay [4], 7.79; in assay [5] (setting [8]) it was 5.66. The inhibition at 10 µM in assay [4] was 100%.

`COc1cc2c(cc1OC)-c1n[nH]c(Nc3cccc(F)c3)c1C2` [Compound 14, (3-Fluoro-phenyl)-(6,7-dimethoxy-2,4-dihydro-indeno[1,2-c]pyrazol-3-yl)-amine]: the pIC50 in assay [1] is 7.49; in assay [2] (Homo sapiens, PC-3, read-out: IC50 on cell proliferation, PC3) it was 7.70; in assay [3] (Homo sapiens, ASPC1, read-out: IC50 on cell proliferation, AsPC1), 6.23; in assay [4], 8.77; in assay [5] (Homo sapiens, A-375, read-out: IC50 on cell proliferation, A375), 8.15. Also, in assay [4], the inhibition at 10 µM came out at 108%.

For `COc1cccc(Nc2[nH]nc3c2Cc2cc4c(cc2-3)OCO4)c1` [Compound 97, (2,9-Dihydro-5,7-dioxa-2,3-diaza-cyclopenta[a]-s-indacen-1-yl)-(3-methoxy-phenyl)-amine], the pIC50 is 6.21 in assay [1]; 5.77 in assay [2] (setting [6]); 5.25 in assay [3] (setting [7]); 7.27 in assay [4]; 6.44 in assay [5] (setting [8]). In addition, the inhibition at 10 µM in assay [4] was 91%.

As for `CN1CCN(c2ccc3c(c2)Cc2c-3n[nH]c2Nc2cccc(Br)c2)CC1` [Compound 122, (3-Bromo-phenyl)-[6-(4-methyl-piperazin-1-yl)-2,4-dihydro-indeno[1,2-c]pyrazol-3-yl]-amine], the pIC50 in assay [1] is 4.98; in assay [2] (setting [6]), 5.20; in assay [3] (setting [7]), < 5.00; in assay [4], 7.79; in assay [5] (setting [8]), 4.84. Besides, the inhibition at 10 µM in assay [4] stood at 70%.

Consider `COc1cc2c(cc1OC)-c1c(c(Nc3cccc(F)c3)nn1C(=O)CO)C2` [Compound 432, 1-[3-(3-Fluoro-phenylamino)-6,7-dimethoxy-4H-indeno[1,2-c]pyrazol-1-yl]-2-hydroxy-ethanone], for which the pIC50 in assay [1] was 8.22; in assay [2] (setting [6]), 7.92; in assay [3] (setting [7]) it was 7.40; in assay [4], 7.42; in assay [5] (setting [8]), 8.70. Moreover, the inhibition at 10 µM in assay [4] is 95.5%.

For the compound `Cc1ccc2c(c1)-c1n[nH]c(Nc3ccccc3)c1C2` [Compound 22, (7-Methyl-2,4-dihydro-indeno[1,2-c]pyrazol-3-yl)-phenyl-amine], the pIC50 in assay [1] was 6.42; in assay [2] (setting [6]), 4.31; in assay [3] (setting [7]), < 5.00; in assay [4], 7.35; in assay [5] (setting [8]) it was 4.94. Further, the inhibition at 10 µM in assay [4] worked out at 96%.

As for `COc1cc2c(cc1OC)-c1n[nH]c(Nc3cccnc3)c1C2` [Compound 30, (6,7-Dimethoxy-2,4-dihydro-indeno[1,2-c]pyrazol-3-yl)-pyridin-3-yl-amine], the pIC50 is 5.09 in assay [1]; 6.76 in assay [2] (setting [6]); < 5.00 in assay [3] (setting [7]); 7.80 in assay [4]; 6.29 in assay [5] (setting [8]). Also, in assay [4], the inhibition at 10 µM was found to be 107%.

Regarding `COc1ccc2c(c1)-c1n[nH]c(Nc3ccccc3)c1C2` [Compound 39, (7-Methoxy-2,4-dihydro-indeno[1,2-c]pyrazol-3-yl)-phenyl-amine], the pIC50 was < 5.00 in assay [1], < 5.00 in assay [2] (setting [6]), < 5.00 in assay [3] (setting [7]) and < 4.30 in assay [5] (setting [8]). Further, in assay [4], the inhibition at 10 µM worked out at 92%.

As for `COc1cc2c(cc1OC)-c1n[nH]c(NCc3ccccc3)c1C2` [Compound 63, Benzyl-(6,7-dimethoxy-2,4-dihydro-indeno[1,2-c]pyrazol-3-yl)-amine], the pIC50 in assay [1] is 5.59; in assay [2] (setting [6]), 5.21; in assay [3] (setting [7]) it was 4.99; in assay [4], 6.72; in assay [5] (setting [8]), 5.55. In assay [4], the inhibition at 10 µM amounted to 94%.

(Values after US7196110B2, “N-substituted tricyclic 3-aminopyrazoles as inhibitors for the treatment of cell proliferative disorders” (Janssen Phamaceutica N.V., priority 2002, dated 2007).)
